Literature values in patent US10285958B2, “Genotype- or phenotype-based drug formulation” (BAYER AKTIENGESELLSCHAFT, priority 2012, dated 2019).
Like-named read-outs stand apart in the source and are kept apart here.

Assays:
[1] = molecular target: polymorphic cytochrome P450 (CYP) 2D6 (Homo sapiens, UniProt P10635); details: humans
Chain of polymorphic cytochrome P450 (CYP) 2D6 (P10635 whole entry): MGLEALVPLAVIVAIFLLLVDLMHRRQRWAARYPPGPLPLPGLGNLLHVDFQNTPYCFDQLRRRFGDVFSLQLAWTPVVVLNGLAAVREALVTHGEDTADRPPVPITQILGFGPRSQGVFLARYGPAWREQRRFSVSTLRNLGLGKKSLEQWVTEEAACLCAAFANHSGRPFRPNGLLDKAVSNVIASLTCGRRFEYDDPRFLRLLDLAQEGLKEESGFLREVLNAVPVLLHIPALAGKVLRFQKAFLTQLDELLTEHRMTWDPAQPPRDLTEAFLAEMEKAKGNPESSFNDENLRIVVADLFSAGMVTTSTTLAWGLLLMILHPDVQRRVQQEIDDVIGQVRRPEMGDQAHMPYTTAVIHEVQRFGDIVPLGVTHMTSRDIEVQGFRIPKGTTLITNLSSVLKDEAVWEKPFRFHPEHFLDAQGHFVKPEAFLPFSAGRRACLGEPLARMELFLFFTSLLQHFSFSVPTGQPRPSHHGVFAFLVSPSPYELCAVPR

## CC/C(=C(\c1ccccc1)c1ccc(OCCN(C)C)cc1)c1ccccc1 [tamoxifen]
Standard dosage 20 mg of tamoxifen, European patients of CYP2D6 EM genotype or phenotype
  time until steady-state concentration of endoxifen is achieved: about 80 days
Up to 40 mg of tamoxifen per day as two individual doses, CYP2D6 IMs and PMs, versus EMs on 20 mg
  endoxifen concentrations after increased tamoxifen dose: did not lead to the endoxifen concentrations observed in CYP2D6 EMs

## CC/C(=C(\c1ccccc1)c1ccc(OCCNC)cc1)c1ccccc1 [N-desmethyltamoxifen]
[1]
  formation of endoxifen from N-desmethyltamoxifen via CYP2D6: exclusively

## CC/C(=C(\c1ccc(O)cc1)c1ccc(OCCNC)cc1)c1ccccc1 [endoxifen]
CYP2D6 IM, versus EM or UM phenotype
  endoxifen concentration in blood under tamoxifen therapy: distinctly below
CYP2D6 PM
  endoxifen concentration in blood under tamoxifen therapy: very low
